Reference: PubChem BioAssay (NCI)
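At the GI50, growth is halved. TGI denotes the concentration required for complete inhibition of growth.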

How the values were obtained:
Test in all cases: NCI anticancer screen, dose series, 384-well format
OVCAR-5 ovarian = tested on: OVCAR-5 ovarian
CCRF-CEM leukemia = tested on: CCRF-CEM leukemia
HCT-15 colon = tested on: HCT-15 colon
SNB-19 CNS = tested on: SNB-19 CNS
SF-539 CNS = tested on: SF-539 CNS
SW-620 colon = tested on: SW-620 colon
HCC-2998 colon = tested on: HCC-2998 colon
MDA-MB-435 melanoma = tested on: MDA-MB-435 melanoma
SK-MEL-28 melanoma = tested on: SK-MEL-28 melanoma
HL-60(TB) leukemia = tested on: HL-60(TB) leukemia
A498 renal = tested on: A498 renal
HCT-116 colon = tested on: HCT-116 colon
NCI-H226 lung = tested on: NCI-H226 lung
M14 melanoma = tested on: M14 melanoma
SR leukemia = tested on: SR leukemia
NCI-H460 NSCLC = tested on: NCI-H460 NSCLC
NCI-H322M lung = tested on: NCI-H322M lung
SF-268 CNS = tested on: SF-268 CNS
U251 glioblastoma = tested on: U251 glioblastoma
SK-OV-3 ovarian = tested on: SK-OV-3 ovarian
MOLT-4 leukemia = tested on: MOLT-4 leukemia
UO-31 renal = tested on: UO-31 renal
NCI/ADR-RES ovarian = tested on: NCI/ADR-RES ovarian
786-0 renal = tested on: 786-0 renal
SF-295 CNS = tested on: SF-295 CNS
UACC-62 melanoma = tested on: UACC-62 melanoma
T-47D breast = tested on: T-47D breast
LOX IMVI melanoma = tested on: LOX IMVI melanoma
SN12C renal = tested on: SN12C renal
UACC-257 melanoma = tested on: UACC-257 melanoma
RXF 393 renal = tested on: RXF 393 renal
A549 NSCLC = tested on: A549 NSCLC
HT29 colon = tested on: HT29 colon
TK-10 renal = tested on: TK-10 renal
DU-145 prostate = tested on: DU-145 prostate
MDA-MB-468 breast = tested on: MDA-MB-468 breast
ACHN renal = tested on: ACHN renal
KM12 colon = tested on: KM12 colon
HOP-62 NSCLC = tested on: HOP-62 NSCLC
RPMI-8226 leukemia = tested on: RPMI-8226 leukemia
CAKI-1 renal = tested on: CAKI-1 renal
PC-3 prostate = tested on: PC-3 prostate
OVCAR-8 ovarian = tested on: OVCAR-8 ovarian
MCF7 breast = tested on: MCF7 breast
NCI-H522 lung = tested on: NCI-H522 lung
MALME-3M melanoma = tested on: MALME-3M melanoma
HOP-92 NSCLC = tested on: HOP-92 NSCLC
K-562 leukemia = tested on: K-562 leukemia
IGROV1 ovarian = tested on: IGROV1 ovarian
SK-MEL-5 melanoma = tested on: SK-MEL-5 melanoma
NCI-H23 lung = tested on: NCI-H23 lung
MDA-MB-231 breast = tested on: MDA-MB-231 breast
OVCAR-3 ovarian = tested on: OVCAR-3 ovarian
COLO 205 colon = tested on: COLO 205 colon
BT-549 breast = tested on: BT-549 breast
OVCAR-4 ovarian = tested on: OVCAR-4 ovarian
SK-MEL-2 melanoma = tested on: SK-MEL-2 melanoma

COc1cc(N2CCC(N3CCN(C)CC3)CC2)ccc1Nc1ncnc(Nc2ccccc2S(=O)(=O)C(C)C)n1
GI50 (OVCAR-5 ovarian): 1.5 µM
TGI (OVCAR-5 ovarian): 4.24 µM
GI50 (CCRF-CEM leukemia): 3.46 µM
TGI (CCRF-CEM leukemia): 10.3 µM
GI50 (HCT-15 colon): 2.97 µM
TGI (HCT-15 colon): 11.1 µM
GI50 (SNB-19 CNS): 3.36 µM
TGI (SNB-19 CNS): 12.9 µM
GI50 (SF-539 CNS): 2.29 µM
TGI (SF-539 CNS): 6.32 µM
GI50 (SW-620 colon): 3.26 µM
TGI (SW-620 colon): 12.3 µM
GI50 (HCC-2998 colon): 2.49 µM
TGI (HCC-2998 colon): 14.3 µM
GI50 (MDA-MB-435 melanoma): 1.95 µM
TGI (MDA-MB-435 melanoma): 5.18 µM
GI50 (SK-MEL-28 melanoma): 2.69 µM
TGI (SK-MEL-28 melanoma): 9.67 µM
GI50 (HL-60(TB) leukemia): 2.68 µM
TGI (HL-60(TB) leukemia): 5.61 µM
GI50 (A498 renal): 4.96 µM
TGI (A498 renal): 17 µM
GI50 (HCT-116 colon): 3.34 µM
TGI (HCT-116 colon): 12.4 µM
GI50 (NCI-H226 lung): 1.42 µM
TGI (NCI-H226 lung): 3.68 µM
GI50 (M14 melanoma): 2.38 µM
TGI (M14 melanoma): 7.72 µM
GI50 (SR leukemia): 0.0183 µM
TGI (SR leukemia): 0.0328 µM
GI50 (NCI-H460 NSCLC): 3.3 µM
TGI (NCI-H460 NSCLC): 13.7 µM
GI50 (NCI-H322M lung): 2.86 µM
TGI (NCI-H322M lung): 9.29 µM
GI50 (SF-268 CNS): 3.13 µM
TGI (SF-268 CNS): 12.2 µM
GI50 (U251 glioblastoma): 3.75 µM
TGI (U251 glioblastoma): 13.5 µM
GI50 (SK-OV-3 ovarian): 1.5 µM
TGI (SK-OV-3 ovarian): 5.26 µM
GI50 (MOLT-4 leukemia): 1.36 µM
TGI (MOLT-4 leukemia): 2.71 µM
GI50 (UO-31 renal): 1.65 µM
TGI (UO-31 renal): 4.44 µM
GI50 (NCI/ADR-RES ovarian): 2.56 µM
TGI (NCI/ADR-RES ovarian): 7.81 µM
GI50 ([…]-0 renal): 3.08 µM
TGI (786-0 renal): 12.6 µM
GI50 (SF-295 CNS): 3.03 µM
TGI (SF-295 CNS): 8.73 µM
GI50 (UACC-62 melanoma): 3.1 µM
TGI (UACC-62 melanoma): 14.8 µM
GI50 (T-47D breast): 1.46 µM
TGI (T-47D breast): 12.1 µM
GI50 (LOX IMVI melanoma): 2.3 µM
TGI (LOX IMVI melanoma): 4.48 µM
GI50 (SN12C renal): 2.6 µM
TGI (SN12C renal): 9.92 µM
GI50 (UACC-257 melanoma): 2.1 µM
TGI (UACC-257 melanoma): 6.53 µM
GI50 (RXF 393 renal): 1.7 µM
TGI (RXF 393 renal): 6.37 µM
GI50 (A549 NSCLC): 2.48 µM
TGI (A549 NSCLC): 9.2 µM
GI50 (HT29 colon): 1.29 µM
TGI (HT29 colon): 5.08 µM
GI50 (TK-10 renal): 2.95 µM
TGI (TK-10 renal): 9 µM
GI50 (DU-145 prostate): 3.23 µM
TGI (DU-145 prostate): 11.8 µM
GI50 (MDA-MB-468 breast): 3.1 µM
TGI (MDA-MB-468 breast): 9.91 µM
GI50 (ACHN renal): 1.62 µM
TGI (ACHN renal): 5.15 µM
GI50 (KM12 colon): 3.76 µM
TGI (KM12 colon): 13.2 µM
GI50 (HOP-62 NSCLC): 2.85 µM
TGI (HOP-62 NSCLC): 8.12 µM
GI50 (RPMI-8226 leukemia): 1.27 µM
TGI (RPMI-8226 leukemia): 4.72 µM
GI50 (CAKI-1 renal): 2.17 µM
TGI (CAKI-1 renal): 5.5 µM
GI50 (PC-3 prostate): 6.17 µM
TGI (PC-3 prostate): 19.8 µM
GI50 (OVCAR-8 ovarian): 2.99 µM
TGI (OVCAR-8 ovarian): 10.2 µM
GI50 (MCF7 breast): 1.04 µM
TGI (MCF7 breast): 6.1 µM
GI50 (NCI-H522 lung): 1.86 µM
TGI (NCI-H522 lung): 6.09 µM
GI50 (MALME-3M melanoma): 3.41 µM
TGI (MALME-3M melanoma): 14.1 µM
GI50 (HOP-92 NSCLC): 1.06 µM
TGI (HOP-92 NSCLC): 3.7 µM
GI50 (K-562 leukemia): 3.75 µM
TGI (K-562 leukemia): 15.3 µM
GI50 (IGROV1 ovarian): 1.86 µM
TGI (IGROV1 ovarian): 4.46 µM
GI50 (SK-MEL-5 melanoma): 2.02 µM
TGI (SK-MEL-5 melanoma): 7.51 µM
GI50 (NCI-H23 lung): 2.98 µM
TGI (NCI-H23 lung): 9.59 µM
GI50 (MDA-MB-231 breast): 1.41 µM
TGI (MDA-MB-231 breast): 4.94 µM
GI50 (OVCAR-3 ovarian): 1.58 µM
TGI (OVCAR-3 ovarian): 4.46 µM
GI50 (COLO 205 colon): 2.31 µM
TGI (COLO 205 colon): 7.37 µM
GI50 (BT-549 breast): 10.9 µM
TGI (BT-549 breast): 22.9 µM
GI50 (OVCAR-4 ovarian): 1.49 µM
TGI (OVCAR-4 ovarian): 6.28 µM
GI50 (SK-MEL-2 melanoma): 1.43 µM
TGI (SK-MEL-2 melanoma): 3.68 µM
